ChEMBL document CHEMBL1136202, “Imidazo[1,2-a]pyridines: a potent and selective class of cyclin-dependent kinase inhibitors identified through structure-based hybridisation” (Bioorg Med Chem Lett, 2003)

Columns and labels:
[1] = molecular target: Cyclin-dependent kinase 2 (Homo sapiens, UniProt P24941); test: Inhibition of Cyclin-dependent kinase 2
[2] = molecular target: Cyclin-dependent kinase 4 (Homo sapiens, UniProt P11802); test: Inhibition of Cyclin-dependent kinase 4
Cyclin-dependent kinase 4, sequence (P11802 whole entry): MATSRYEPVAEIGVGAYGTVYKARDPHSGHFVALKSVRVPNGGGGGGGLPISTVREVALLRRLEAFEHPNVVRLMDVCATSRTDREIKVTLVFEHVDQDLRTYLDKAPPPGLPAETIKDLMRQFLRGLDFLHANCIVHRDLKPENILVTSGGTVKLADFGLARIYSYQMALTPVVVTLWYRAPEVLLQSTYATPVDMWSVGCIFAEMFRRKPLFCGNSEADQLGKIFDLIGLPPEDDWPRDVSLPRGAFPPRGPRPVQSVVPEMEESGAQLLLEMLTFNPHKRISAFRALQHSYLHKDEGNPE

Row | SMILES | IC50 [1] [µM] | IC50 [2] [µM]
1 | Cc1nc2ccccn2c1-c1ccnc(Nc2ccc(S(N)(=O)=O)cc2)n1 | < 0.003 | 2.5
2 | CN(C)CC(O)COc1ccc(Nc2nccc(Nc3ccccc3)n2)cc1 (stereo unspecified) | 32 | –
3 | Cc1nc2ccccn2c1-c1ccnc(Nc2ccccc2)n1 | 0.036 | 3.6
4 | CC(=O)Nc1nccc(-c2c(C)nc3ccccn23)n1 | 2.9 | 8.9
5 | Cc1ccc(F)c(Nc2ccnc(Nc3ccc(S(N)(=O)=O)cc3)n2)c1 | 0.006 | 2.7
6 | Cc1nc2ccccn2c1-c1ccnc(NC(=O)Nc2ccccc2)n1 | > 10 | > 10
7 | Cc1nc2ccccn2c1-c1ccnc(N)n1 | 4 | 8
8 | Cc1nc2ccccn2c1-c1ccnc(NC(=O)C(F)(F)F)n1 | 95 | 40
9 | Cc1nc2ccccn2c1-c1ccnc(Nc2ccc(OCC(O)CN(C)C)cc2)n1 (stereo unspecified) | – | 0.15
